Usually chromatographic logP stands for lipophilicity estimated from chromatographic retention. High values mean a more lipophilic compound, low ones a more hydrophilic compound.

A short description of this data set: log P determination by HPLC (EEC Directive 79/831 Annex V. A8). The format is physicochemical. On the procedure:
The log P values were determined in accordance with EEC Directive 79/831 Annex V. A8 by HPLC (gradient method, acetonitrile/0.1% strength aqueous phosphoric acid).
On to `CON=C(C1=NOCCO1)c1ccccc1C=NN=C(C)c1cccc(C(F)(F)F)c1` [Example 1, (5,6-dihydro-[1,4,2]dioxazin-3-yl)-(2-{[1-(3-trifluoromethylphenyl)-ethylidene]-hydrazonomethyl}-phenyl)-methanone O-methyl oxime], for which the chromatographic logP was 3.8.

In the case of `CON=C(C1=NOCCO1)c1ccccc1C=NN=C(C)c1ccc(C(F)(F)F)cc1` [Example 2, (5,6-dihydro-[1,4,2]dioxazin-3-yl)-(2-{[1-(4-trifluoromethylphenyl)-ethylidene]-hydrazonomethyl}-phenyl)-methanone O-methyl oxime], the chromatographic logP amounted to 3.8.

For `CON=C(C)C(C)=NN=Cc1ccccc1C(=NOC)C1=NOCCO1` [Example 4, 3-({2-[(5,6-dihydro-[1,4,2]dioxazin-3-yl)-methoxyimino-methyl]-benzylidene}-hydrazono)-butan-2-one O-methyl oxime], the chromatographic logP came to 3.17.

In turn, `CON=C(C(C)=NN=Cc1ccccc1/C(=N/OC)C1=NOCCO1)C(C)C` [Example 12] registered a chromatographic logP of 3.92.

For the compound `CCC(=NOC)C(C)=NN=Cc1ccccc1/C(=N/OC)C1=NOCCO1` [Example 13], the chromatographic logP is 3.58.

`CCON=C(C)C(C)=NN=Cc1ccccc1C(=NOC)C1=NOCCO1` [Example 17] registered a chromatographic logP of 3.61.

For the origin of these results see patent US6420362B1, “Azines containing the 5,6-di-hydro-(1,4,2) dioxazine-3-yl group and the use thereof as fungicides” (priority 1997, dated 2002).
